Results taken from PubChem BioAssay (NCI).
Several values for one entry are separate records, joined by “and”; a condition that tells them apart may be missing. Equal entries are not always repeated.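 Cells were grown in 96-well plates and exposed to each compound for 48 hours at five concentrations; endpoints were interpolated linearly between bracketing concentrations, or set to the highest concentration if not reached. Here, GI50 denotes the concentration required for 50% inhibition of growth. TGI marks complete inhibition of growth.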

How the values were obtained:
Experiment in all cases: NCI-60 cell line screen, 48 h
HCC-2998 colon = test system: HCC-2998 colon
HCT-15 colon = test system: HCT-15 colon
HS 578T breast = test system: HS 578T breast
786-0 renal = test system: 786-0 renal
SNB-19 CNS = test system: SNB-19 CNS
OVCAR-8 ovarian = test system: OVCAR-8 ovarian
U251 CNS = test system: U251 CNS
OVCAR-4 ovarian = test system: OVCAR-4 ovarian

Structure (SMILES)	GI50 (HCC-2998 colon)	TGI (HCC-2998 colon)	GI50 (HCT-15 colon)	TGI (HCT-15 colon)	GI50 (HS 578T breast)	TGI (HS 578T breast)	GI50 (786-0 renal)	TGI (786-0 renal)	GI50 (SNB-19 CNS)	TGI (SNB-19 CNS)	GI50 (OVCAR-8 ovarian)	TGI (OVCAR-8 ovarian)	GI50 (U251 CNS)	TGI (U251 CNS)	GI50 (OVCAR-4 ovarian)	TGI (OVCAR-4 ovarian)
CCN(CC)CCCCCCNc1cc(OC)cc2cccnc12	2.32 µM	5 µM	1.9 µM	3.78 µM	12.3 µM	42.3 µM	2.11 µM	4.32 µM	8.17 µM	30.8 µM	3.04 µM	8.99 µM	2.38 µM	5.2 µM	2.5 µM	9.55 µM
Cc1ccc(/C(C#N)=C/c2cccc([N+](=O)[O-])c2)cc1	–	> 100 µM	–	> 100 µM	–	65 µM	–	> 100 µM	–	> 100 µM	–	> 100 µM	–	> 100 µM	–	> 100 µM
N#CCCN1C/C(=C/c2ccc(Cl)cc2)C(=O)/C(=C/c2ccc(Cl)cc2)C1	1.84 µM	3.33 µM	0.412 µM	1.78 µM	2.9 µM	12.8 µM	0.868 µM	2.77 µM	1.31 µM	2.72 µM	0.543 µM	11.6 µM	0.417 µM	1.48 µM	3.01 µM	15.7 µM
C=CCN1CC(=O)N2[C@@H](Cc3ccc(O)cc3F)C(=O)N(Cc3cccc(N4CC(N5CCN(CC)CC5)C4)n3)C[C@@H]2N1C(=O)NCc1ccccc1	0.0687 µM	> 100 µM	0.449 µM	> 20.9 µM	0.0279 µM	0.15 µM	0.173 µM	> 100 µM	0.0324 µM	> 100 µM	0.0295 µM	–	0.0319 µM	> 100 µM	0.0329 µM	> 100 µM
COC(=O)c1cc2c(cc1Cl)SC1=NN(C)C(N(C)C)N1S2(=O)=O (stereo not given)	> 100 µM	> 100 µM	> 100 µM	> 100 µM	> 100 µM	> 100 µM	> 100 µM	> 100 µM	> 100 µM	> 100 µM	> 100 µM	> 100 µM	> 100 µM	> 100 µM	> 100 µM	> 100 µM
COC(=O)[C@H]1CCCN1C(=O)[C@H]1CCCN1C(=O)[C@@H](Cc1c[nH]c2ccccc12)NC(=S)Nc1cc(C(F)(F)F)cc(C(F)(F)F)c1	1.82 µM	3.3 µM	1.66 µM	3.13 µM	2.03 µM	5.17 µM	1.83 µM	3.29 µM	2.14 µM	5.72 µM	1.98 µM	3.94 µM	1.54 µM	2.9 µM	2.86 µM	12.9 µM
N#CC1=C(/N=C/c2ccccc2)Oc2c(ccc3ccccc23)C1c1ccccc1 (stereo not given)	1.2 µM	> 67.9 µM	0.494 µM	> 100 µM	0.377 µM	> 100 µM	0.546 µM	> 100 µM	0.702 µM	> 100 µM	0.708 µM	> 100 µM	0.527 µM	> 100 µM	0.698 µM	> 100 µM
O=[N+]([O-])c1ccc(N2CCOCC2)c2c1no[n+]2[O-]	1.53 µM	7.25 µM	1.32 µM	2.89 µM	1.15 µM	4.17 µM	2.12 µM	6 µM	3.74 µM	16.4 µM	1.1 µM	2.62 µM	0.984 µM	2.32 µM	1.38 µM	3.99 µM
NS(=O)(=O)c1ccc(-c2cc3ccncc3cc2OCc2ccccc2)cc1	> 25 µM	> 25 µM	13.2 µM	> 25 µM	7.04 µM	> 25 µM	> 19.8 µM	> 25 µM	> 25 µM	> 25 µM	8.19 µM	> 25 µM	> 21.5 µM	> 25 µM	> 19.6 µM	> 25 µM
Cc1cc(N(CCCNc2ccnc3cc(Cl)ccc23)Cc2ccco2)nc(N2CCN(C)CC2)n1	1.98 µM	4.88 µM	2.07 µM	10.5 µM	2.43 µM	7.85 µM	1.83 µM	3.63 µM	5 µM	16.9 µM	3.87 µM	16.8 µM	2.67 µM	6.92 µM	3.59 µM	19.6 µM
O=C(O)Cc1cccnc1	–	> 100 µM	–	> 100 µM	–	> 100 µM	–	> 100 µM	–	> 100 µM	–	> 100 µM	–	> 100 µM	–	> 100 µM
O=C(CC1(O)C(=O)N(Cc2ccccc2)c2ccccc21)c1ccc(C(=O)NCC2CCC3(CC2)OOC2(CCCCC2)OO3)cc1 (stereo not given)	2.3 µM	5.06 µM	1.76 µM	4.76 µM	2.76 µM	7.81 µM	0.18 µM	0.345 µM	4.67 µM	51.8 µM	0.287 µM	0.817 µM	0.774 µM	2.17 µM	1.95 µM	5.35 µM
CCCCCO/N=C\c1c2c(O)c3c(O)c(C)c4c(c3c1O)C(=O)C(C)(O/C=C\C(OC)C(C)C(OC(C)=O)C(C)C(O)C(C)C(O)C(C)/C=C\C=C(\C)C(=O)N2)O4 (stereo not given)	1.65 µM	3.08 µM	1.79 µM	3.31 µM	1.69 µM	4.2 µM	1.73 µM	3.25 µM	1.67 µM	3.19 µM	–	–	1.84 µM	3.54 µM	2.28 µM	6.1 µM
CC1=C(CC(=O)c2cccc([N+](=O)[O-])c2)C(=O)c2ccccc2C1=O	38 µM	> 100 µM	3.79 µM	19.5 µM	4.74 µM	48.6 µM	14.8 µM	35.4 µM	> 100 µM	> 100 µM	5.87 µM	48.9 µM	6.74 µM	21.6 µM	1.86 µM	7 µM
CC1OC(OC2C(O)CC(OC3C(O)CC(OC4CCC5(C)C(CCC6C5CC(O)C5(C)C(C7=CC(=O)OC7)CCC65O)C4)OC3C)OC2C)CC(O)C1O (stereo not given)	0.146 µM	0.451 µM	0.113 µM	0.293 µM	0.042 µM	2.3 µM	0.041 µM	0.162 µM	0.113 µM	0.238 µM	0.0566 µM	0.196 µM	0.0514 µM	0.165 µM	0.0347 µM	0.139 µM
COc1ccc(/C=C(\C#N)n2nnc3c(F)cccc32)cc1	1.16 µM	> 47 µM	0.133 µM	> 100 µM	0.309 µM	1.98 µM	0.607 µM	> 51.2 µM	0.412 µM	18.2 µM	0.532 µM	> 34.5 µM	0.41 µM	17.7 µM	> 28.2 µM	> 100 µM

Structure (SMILES)	GI50 (HCC-2998 colon)	TGI (HCC-2998 colon)	GI50 (HCT-15 colon)	TGI (HCT-15 colon)	GI50 (HS 578T breast)	TGI (HS 578T breast)	GI50 (786-0 renal)	TGI (786-0 renal)	GI50 (SNB-19 CNS)	TGI (SNB-19 CNS)	GI50 (OVCAR-8 ovarian)	TGI (OVCAR-8 ovarian)	GI50 (U251 CNS)	TGI (U251 CNS)	GI50 (OVCAR-4 ovarian)	TGI (OVCAR-4 ovarian)
COC(=O)c1cncc(/C=C/c2c(C)cc(O)cc2C)c1	13.3 µM	> 25 µM	11.1 µM	> 25 µM	6.91 µM	> 25 µM	9.42 µM	> 25 µM	> 21.9 µM	> 25 µM	17.9 µM	> 25 µM	> 16.7 µM	> 25 µM	8.11 µM	> 25 µM
O=C(/C=C/c1cccc(O)c1)c1cccc(-n2cc(-c3ccccc3)[nH]c2=O)c1	8.27 µM	20.2 µM	2.94 µM	10.3 µM	5.7 µM	44.6 µM	2.36 µM	–	6.58 µM	18.6 µM	2.86 µM	10.5 µM	1.56 µM	3.05 µM	4.15 µM	> 37 µM
COC(=O)CCCCC(=O)c1c(C)[nH]c(/C=C2\N=C(c3ccc[nH]3)C=C2OC)c1C	1.96 µM	4.19 µM	0.359 µM	1.4 µM	1.02 µM	3.05 µM	0.437 µM	1.61 µM	1.53 µM	3.16 µM	0.451 µM	1.76 µM	0.868 µM	2.15 µM	1.14 µM	2.47 µM
CSc1nc2sc3c(c2c(=O)n1-c1ccc(C(C)C)cc1)CCC(=O)C3	2.47 µM	5.02 µM	2.14 µM	4.04 µM	2.96 µM	9.64 µM	3.06 µM	9.79 µM	2.15 µM	4.56 µM	2.12 µM	4.49 µM	1.7 µM	3.07 µM	2.34 µM	5.86 µM
c1ccc2c(c1)Nc1ccncc1S2	27.9 µM	> 100 µM	28 µM	> 100 µM	11.4 µM	48.4 µM	28.8 µM	> 100 µM	25.7 µM	> 100 µM	21.6 µM	> 100 µM	27.2 µM	> 100 µM	23.7 µM	> 100 µM
Oc1ccc(C(c2ccc(O)cc2)c2ccc(Br)cn2)cc1	0.322 µM	2.98 µM	0.425 µM	16.9 µM	0.242 µM	0.593 µM	21.5 µM	> 79.7 µM	16.1 µM	> 100 µM	0.276 µM	0.786 µM	18.5 µM	50.9 µM	0.101 µM	0.525 µM
COc1ncnc(NS(=O)(=O)c2ccc(N=C3C(=O)N(CN4CCN(c5c(F)cc6c(=O)c(C(=O)O)cn(C7CC7)c6c5OC)CC4C)c4ccc(Br)cc43)cc2)c1OC (stereo not given)	–	–	4.73 µM	> 50 µM	12.1 µM	> 50 µM	38.8 µM	> 50 µM	19.4 µM	> 50 µM	15.3 µM	> 50 µM	19.7 µM	> 50 µM	> 50 µM	> 50 µM
Cc1cc[n+]2c(c1)-c1cc(C)cc[n+]1CC2	–	> 100 µM	–	> 100 µM	–	> 100 µM	–	> 100 µM	–	> 100 µM	–	> 100 µM	–	> 100 µM	–	> 100 µM
Cn1cc(C2=C(c3cccc(OC[C@@H](O)CO)c3)C(=O)NC2=O)c2ccccc21	> 25 µM	> 25 µM	> 25 µM	> 25 µM	1.39 µM	> 25 µM	14 µM	> 25 µM	> 25 µM	> 25 µM	> 25 µM	> 25 µM	> 15.5 µM	> 25 µM	> 16.4 µM	> 25 µM
Cc1cc(C#Cc2ccc(C(C)(C)C)cc2)ccc1-n1c(/C=C/c2ccc(O)cc2O)nc2ccccc2c1=O	1.93 µM	3.85 µM	2.74 µM	10.2 µM	2.2 µM	5.87 µM	5.08 µM	17.9 µM	7.9 µM	22.5 µM	3.55 µM	12.5 µM	2.11 µM	6.03 µM	3.15 µM	14.7 µM
Cc1cc(N=Nc2ccccc2C)ccc1N	22 µM	24.9 µM and 53.5 µM	–	25.2 µM and 33.4 µM	13.3 µM	32.1 µM and 45.9 µM	2.96 µM	27 µM and 15.8 µM	16.4 µM	> 100 µM and 56 µM	20.7 µM	34.6 µM and 96.4 µM	–	35.7 µM and 30.4 µM	–	62.3 µM
O=S(=O)(/C=C/C(=C/c1ccccc1)S(=O)(=O)c1ccccc1)c1ccccc1	–	3.45 µM	–	3.3 µM	–	–	–	3.15 µM	–	3.18 µM	–	3.08 µM	–	3.27 µM	–	3.07 µM
N#CCN1CCn2c1nsc2=S	–	–	> 100 µM	> 100 µM	> 100 µM	> 100 µM	> 100 µM	> 100 µM	> 100 µM	> 100 µM	> 100 µM	> 100 µM	> 100 µM	> 100 µM	> 100 µM	> 100 µM
COc1cc2c(cc1OC)-c1ncc3c(OC)c(OC)c(OC)cc3c1C2	47.7 µM	> 100 µM	13.7 µM	44.5 µM	–	–	36.7 µM	> 100 µM	23 µM	50 µM	16.3 µM	38.5 µM	15.8 µM	33 µM	96.5 µM	> 100 µM
CN(CCNCc1ccccn1)CCNCc1ccccn1	2.17 µM	4.64 µM	2.96 µM	12.6 µM	–	–	1.8 µM	3.57 µM	5.29 µM	18.5 µM	2.99 µM	7.62 µM	3.48 µM	12 µM	2.85 µM	8.99 µM
O=C1c2sccc2-c2cccc3cccc1c23 (tested in a mixture with another compound)	–	–	–	24.9 µM	–	6.72 µM	–	> 100 µM	–	35 µM	–	36.4 µM	–	23 µM	–	33.9 µM
